Experimental data as given in patent US11059795B2, “Androgen receptor modulators and methods for their use” (ESSA Pharma, Inc., priority 2018, dated 2021).
pIC50: −log10 of the molar value.

Experiments:
[1] = Microsomal stability assay, mouse liver microsomes; type: in vitro ADME; conditions: mouse, liver microsomes, pH 7.4, mouse liver microsomes, 1 μM compound, 0.5 mg/mL protein, 37° C.; read-out: MLM +30/− NADPH: Clint (μL/min/mg protein)
In short: (§1)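 Compound at 1 μM was incubated at 37° C with 0.5 mg/mL liver microsomes and 1 mM NADPH and/or 1 mM UDPGA (with alamethicin) in 100 mM potassium phosphate pH 7.4, 3 mM MgCl2. Samples were taken at 0, 15, 30 and 60 min and measured by LC/MS/MS. t½ came from compound loss relative to 0 min, and Clint was scaled with 45 mg microsomal protein/g liver.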

[2] = Microsomal stability assay, human liver microsomes; type: in vitro ADME; conditions: pH 7.4, 1 μM compound, 0.5 mg/mL protein, 37° C., read-out: HLM +/− NADPH: Clint (μL/min/mg protein)
In short: as §1

androgen receptor (AR) = target: T1, androgen receptor (AR) (Homo sapiens, UniProt P10275, T878A); test: Androgen-induced PSA (6.1 kb)-luciferase reporter assay in LNCaP cells; type: cell-based; conditions: LNCaP cells transfected with PSA (6.1 kb)-luciferase reporter, R1881 1 nM, 24 h; read-out: PSA-Luc IC50 Range
T1 construct: LNCaP cells were transiently transfected with the PSA (6.1 kb)-luciferase reporter for 24 h; endogenous in cells; host or cells: LNCaP
T1 sequence (P10275 1-920 T878A): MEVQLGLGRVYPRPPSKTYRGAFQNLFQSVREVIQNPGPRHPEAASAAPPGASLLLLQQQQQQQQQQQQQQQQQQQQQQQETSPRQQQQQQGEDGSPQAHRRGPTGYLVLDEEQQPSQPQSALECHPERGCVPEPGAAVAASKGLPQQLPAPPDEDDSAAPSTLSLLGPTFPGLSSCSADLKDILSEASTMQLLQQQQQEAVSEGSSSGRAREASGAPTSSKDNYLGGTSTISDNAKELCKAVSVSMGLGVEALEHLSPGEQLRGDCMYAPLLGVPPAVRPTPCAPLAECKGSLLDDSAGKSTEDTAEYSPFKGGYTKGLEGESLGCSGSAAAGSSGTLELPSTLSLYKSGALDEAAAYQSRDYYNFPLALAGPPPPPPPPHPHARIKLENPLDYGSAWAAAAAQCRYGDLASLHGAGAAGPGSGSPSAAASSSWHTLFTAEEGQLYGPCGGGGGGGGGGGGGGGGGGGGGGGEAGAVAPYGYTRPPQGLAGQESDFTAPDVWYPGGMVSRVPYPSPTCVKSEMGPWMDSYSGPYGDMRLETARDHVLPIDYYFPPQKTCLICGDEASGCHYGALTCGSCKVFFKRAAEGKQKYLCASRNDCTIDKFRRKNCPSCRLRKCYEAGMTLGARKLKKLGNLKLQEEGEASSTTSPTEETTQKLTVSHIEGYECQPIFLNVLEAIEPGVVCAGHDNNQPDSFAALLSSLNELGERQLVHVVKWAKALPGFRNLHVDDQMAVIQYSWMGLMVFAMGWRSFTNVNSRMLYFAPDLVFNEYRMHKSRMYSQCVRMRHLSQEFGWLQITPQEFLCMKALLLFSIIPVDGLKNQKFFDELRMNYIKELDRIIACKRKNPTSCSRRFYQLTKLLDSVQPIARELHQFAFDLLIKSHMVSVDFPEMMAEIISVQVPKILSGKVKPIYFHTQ
In short: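 Read-out is firefly luminescence (10 s) in LNCaP lysates, normalized to protein, from an ARE-containing PSA (6.1 kb)-luciferase reporter driven by androgen.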

[3] = Hepatocyte stability assay, mouse hepatocytes; type: in vitro ADME; conditions: mouse, cryopreserved hepatocytes, 1 μM compound, 0.5 million cells/mL, 37° C., read-out: MH +/− NADPH: Clint (μL/min/million cells)
Description: The […] of in vitro intrinsic clearance (Clint) for drug candidates in the early discovery stage is common practice in the pharmaceutical industry. The Clint values of drug candidates can help to confirm whether metabolism is the main clearance pathway when it is compared with the total body clearance in vivo. Hepatocytes are among the routinely used in vitro systems for measuring clearance. Hepatocytes have been reported to retain most of the phase I and phase II metabolic activities, and therefore, it is a useful tool to estimate the intrinsic clearance for potential drug candidates.
Metabolic stability of testing compound were be evaluated using human and mouse hepatocytes and can also be use rat, mouse, or other animal hepatocytes to predict intrinsic clearance. Cryopreserved hepatocytes were removed from the liquid nitrogen tank and thawed in a 37° C. water bath. As soon as the cells pulled away from the vial wall, they were decanted into 48 ml of warm HT medium. Cells were centrifuged for four minutes at 420 rpm (50 g). After removing the supernatant, pellet was re-suspended in warm DMEM medium. Cell density was counted by a hemacytometer.
The assay was carried out in 96-well microtiter plates. Compounds were incubated for 0, 60, 120, and 180 minutes at 37° C. with hepatocytes. Reaction mixtures (50 μL) contained a final concentration of 1 μM test compound, 0.5 million cells/mL hepatocytes in the DMEM medium. At each of the time points (for example, 0, 1, 2, and 3 hours), 200 μL of quench solution (100% acetonitrile with 0.1% formic acid) with internal standard was transferred to each well. Midazolam was included as a positive control to verify assay performance. Plates were sealed and centrifuged at 4° C. for 15 minutes at 4000 rpm. The supernatant is transferred to fresh plates for LC/MS/MS analysis.
Summarized conditions (customizable): [Compound]=[…], Positive control: midazolam and/or naloxone, [Hepatocyte]=0.5 million cells/Ml, time=0, 60, 120, and 180 min, t=37° C.
All samples were analyzed on LC/MS/MS using an AB Sciex API 4000 instrument, coupled to a Shimadzu LC-20AD LC Pump system. Analytical samples were separated using a Waters Atlantis T3 dC18 reverse phase HPLC column (20 mm×2.1 mm) at a flow rate of 0.5 mL/min. The mobile phase consisted of 0.1% formic acid in water (solvent A) and 0.1% formic acid in 100% acetonitrile (solvent B).
The extent of metabolism was calculated as the disappearance of the test compound, compared to the 0-min control reaction incubations. Initial rates were calculated for the compound concentration and used to determine t½ values and subsequently, the intrinsic clearance, Clint. Clint=(0.693)(1/t½(min))(mL incubation/million cells)

Compound | microsomal CLint at 1 μM [1] | microsomal CLint at 1 μM [2] | pIC50 (androgen receptor (AR)) | hepatocyte CLint at 1 μM [3]
CC(C)(c1ccc(OCc2cnc(Cl)o2)cc1)c1cc(Cl)c(OCCCl)c(C#N)c1 [Compound A115] | < 12 µL/min/mg | < 12 µL/min/mg | > 6.30 | ≥ 18 µL/min/1e6 cells
CC(Oc1ccc(C(C)(C)c2cc(Cl)c(OCCCl)c(Cl)c2)cc1)c1[nH]cnc1S(C)(=O)=O (centres unmarked) [Compound A116] | 12 to 48 µL/min/mg | 12 to 48 µL/min/mg | 5.70 to 6.30 | 4 to 18 µL/min/1e6 cells
CC(C)(c1ccc(OCc2ocnc2S(C)(=O)=O)cc1)c1cc(Cl)c(OCC(O)CCl)c(Cl)c1 (centres unmarked) [Compound A117] | 12 to 48 µL/min/mg | 12 to 48 µL/min/mg | 5.70 to 6.30 | ≥ 18 µL/min/1e6 cells
CSc1nc(COc2ccc(C(C)(C)c3cc(Cl)c(OCCCl)c(C#N)c3)cc2)c(C)o1 [Compound A118] | ≥ 48 µL/min/mg | ≥ 48 µL/min/mg | 5.70 to 6.30 | 4 to 18 µL/min/1e6 cells
CSc1nc(C)c(COc2ccc(C(C)(C)c3cc(Cl)c(OCCCl)c(C#N)c3)cc2)o1 [Compound A119] | ≥ 48 µL/min/mg | ≥ 48 µL/min/mg | > 6.30 | 4 to 18 µL/min/1e6 cells
CC(C)(c1ccc(CNc2ccnc(NS(C)(=O)=O)n2)cc1)c1cc(Cl)c(OCCCl)c(C#N)c1 [Compound A120] | < 12 µL/min/mg | ≥ 48 µL/min/mg | < 5.70 | 4 to 18 µL/min/1e6 cells
CC(C)(c1ccc(CCc2ccnc(N)n2)cc1)c1cc(Cl)c(OCCCl)c(C#N)c1 [Compound A121] | 12 to 48 µL/min/mg | 12 to 48 µL/min/mg | 5.70 to 6.30 | 4 to 18 µL/min/1e6 cells
Cc1nc(NS(C)(=O)=O)nc(COc2ccc(C(C)(C)c3cc(Cl)c(OCCCl)c(C#N)c3)cc2)c1C [Compound A123] | ≥ 48 µL/min/mg | < 12 µL/min/mg | > 6.30 | 4 to 18 µL/min/1e6 cells
CC(C)(c1ccc(OCc2ccnc(S(C)(=O)=O)n2)cc1)c1cc(Cl)c(OCCCl)c(C#N)c1 [Compound A124] | ≥ 48 µL/min/mg | < 12 µL/min/mg | < 5.70 | ≥ 18 µL/min/1e6 cells
CC(C)S(=O)(=O)c1nc(COc2ccc(C(C)(C)c3cc(Cl)c(OCCCl)c(C#N)c3)cc2)co1 [Compound A125] | ≥ 48 µL/min/mg | < 12 µL/min/mg | > 6.30 | ≥ 18 µL/min/1e6 cells
CC(C)(c1ccc(OCc2coc(NS(C)(=O)=O)n2)cc1)c1cc(Cl)c(OCCCl)c(C#N)c1 [Compound A130] | < 12 µL/min/mg | 12 to 48 µL/min/mg | 5.70 to 6.30 | < 4 µL/min/1e6 cells
CC(C)S(=O)(=O)Nc1nc(COc2ccc(C(C)(C)c3cc(Cl)c(OCCCl)c(C#N)c3)cc2)co1 [Compound A132] | < 12 µL/min/mg | < 12 µL/min/mg | 5.70 to 6.30 | < 4 µL/min/1e6 cells
CC(C)(c1ccc(OCc2cnc(NS(C)(=O)=O)o2)cc1)c1cc(Cl)c(OCCCl)c(C#N)c1 [Compound A133] | ≥ 48 µL/min/mg | ≥ 48 µL/min/mg | > 6.30 | ≥ 18 µL/min/1e6 cells
CC(C)(c1ccc(OCc2csc(NS(C)(=O)=O)n2)cc1)c1cc(Cl)c(OCCCl)c(C#N)c1 [Compound A134, N-(4-((4-(2-(3-chloro-4-(2-chloroethoxy)-5-cyanophenyl)propan-2-yl)phenoxy)methyl)thiazol-2-yl)methanesulfonamide] | < 12 µL/min/mg | 12 to 48 µL/min/mg | 5.70 to 6.30 | < 4 µL/min/1e6 cells
CC(C)(c1ccc(OCc2ncc(NS(C)(=O)=O)s2)cc1)c1cc(Cl)c(OCCCl)c(C#N)c1 [Compound A135] | 12 to 48 µL/min/mg | 12 to 48 µL/min/mg | > 6.30 | ≥ 18 µL/min/1e6 cells
CC(C)(c1ccc(OCc2nc(NS(C)(=O)=O)cs2)cc1)c1cc(Cl)c(OCCCl)c(C#N)c1 [Compound A137, N-(2-((4-(2-(3-Chloro-4-(2-chloroethoxy)-5-cyanophenyl)propan-2-yl)phenoxy)methyl)thiazol-4-yl)methanesulfonamide] | 12 to 48 µL/min/mg | < 12 µL/min/mg | > 6.30 | < 4 µL/min/1e6 cells
CC(=O)Nc1nc(COc2ccc(C(C)(C)c3cc(Cl)c(OCCCl)c(C#N)c3)cc2)co1 [Compound A140] | ≥ 48 µL/min/mg | ≥ 48 µL/min/mg | > 6.30 | ≥ 18 µL/min/1e6 cells
CC(C)(c1ccc(OCc2ncoc2S(C)(=O)=O)cc1)c1cc(Cl)c(OCCCl)c(C#N)c1 [Compound A141] | ≥ 48 µL/min/mg | < 12 µL/min/mg | > 6.30 | ≥ 18 µL/min/1e6 cells
CC(C)S(=O)(=O)c1ncc(COc2ccc(C(C)(C)c3cc(Cl)c(OCCCl)c(C#N)c3)cc2)o1 [Compound A142] | ≥ 48 µL/min/mg | 12 to 48 µL/min/mg | > 6.30 | ≥ 18 µL/min/1e6 cells
CC(C)(c1ccc(OCC2COC(NS(C)(=O)=O)=N2)cc1)c1ccc(OCCCl)c(C#N)c1 (centres unmarked) [Compound A143] | < 12 µL/min/mg | < 12 µL/min/mg | < 5.70 | < 4 µL/min/1e6 cells
CC(=O)Nc1nccc(C(C)Oc2ccc(C(C)(C)c3cc(Cl)c(OCCCl)c(C#N)c3)cc2)n1 (centres unmarked) [Compound A145] | ≥ 48 µL/min/mg | ≥ 48 µL/min/mg | 5.70 to 6.30 | ≥ 18 µL/min/1e6 cells
CC(Oc1ccc(C(C)(C)c2cc(Cl)c(OCCCl)c(C#N)c2)cc1)c1ccnc(S(C)(=O)=O)n1 (centres unmarked) [Compound A147] | ≥ 48 µL/min/mg | 12 to 48 µL/min/mg | < 5.70 | ≥ 18 µL/min/1e6 cells
CC(C)(c1ccc(OCc2cncnc2NS(C)(=O)=O)cc1)c1cc(Cl)c(OCCCl)c(C#N)c1 [Compound A148] | < 12 µL/min/mg | ≥ 48 µL/min/mg | 5.70 to 6.30 | < 4 µL/min/1e6 cells
